In data set [1] the test system is wild-type and Bax/Bak-deficient fibroblasts. The following applies: cited from earlier work.
The subject of data set [2] is Mcl-1 and Bfl-1. The following applies: cited from earlier work.
Data set [3] has as its system BH3 binding groove of Bcl-2, Bcl-XL, and Bcl-w. The following applies: cited from earlier work.
Data set [4] has as its system A549 cells. As to the kind of experiment: BH3-M6 and CEP-1612 alone or in combination in A549 cells (MTT, TUNEL, PARP cleavage). Type of data set: cell-based, human. On the procedure:
FIG. 7 is a series of images illustrating BH3-M6 sensitizes A549 cells to the proteasome inhibitor CEP-1612 to induce apoptosis. A549 cells were treated with the indicated concentrations of either drug alone or in combination and then processed for various assays as described in EXPERIMENTAL PROCEDURES. (A) Cell viability as measured by MTT assay after 72 h of treatment, error bars indicate standard deviations of triplicates. (B) apoptosis as determined by TUNEL assay after 48 h of treatment. (C) PARP cleavage after 24 hours of drug treatment.
Release of cytochrome c from isolated mitochondria was measured as described by Takahashi et al. (Takahashi, Y., Karbowski, M., Yamaguchi, H., Kazi, A., Wu, J., Sebti, S. M., Youle, R. J., and Wang, H. G. (2005) Mol Cell Biol 25, 9369-9382) Cell-free caspase-3/-7 activity and the extent of PARP cleavage was determined as described previously. (Kazi, A., Smith, D. M., Zhong, Q., and Dou, Q. P. (2002) Mol Pharmacol 62, 765-771) MTT (3-(4,5-dimethylthiazol-2-yl)-2,5-diphenyltetrazolium bromide) and TUNEL assays were performed according to Kazi et al., both of which are incorporated herein by reference. (Kazi, A., Lawrence, H., Guida, W. C., McLaughlin, M. L., Springett, G. M., Berndt, N., Yip, R. M. L., and Sebti, S. M. (2009) Cell Cycle 8, 1940-1951)
To determine whether BH3-M6 sensitizes cells to apoptosis induced by other stimuli, the inventors treated A549 cells with BH3-M6 and CEP-1612 (Sun, J., Nam, S., Lee, C. S., Li, B., Coppola, D., Hamilton, A. D., Dou, Q. P., and Sebti, S. M. (2001) Cancer Res 61, 1280-1284), either alone or in combination. BH3-M6 and CEP-1612 alone had little effect on cell viability (about 20% and about 28%, respectively) (FIG. 7A) and apoptosis (about 5% and about 8%, respectively) (FIG. 7B). […] The results from FIG. 7C were obtained after about 24 hours of drug treatment, whereas those from FIG. 5C were obtained after about 48 hours of drug treatment.

For the molecule `CN(C)CC[C@H](CSc1ccccc1)Nc1ccc(S(=O)(=O)NC(=O)c2ccc(N3CCN(Cc4ccccc4-c4ccc(Cl)cc4)CC3)cc2)cc1[N+](=O)[O-]` [ABT-737], the “killing of wild-type vs Bax/Bak-deficient cells” value in data set [1] is “kills only wild-type, but not Bax/Bak-deficient cells”. For the same molecule, the “binding to Mcl-1 and Bfl-1” value in data set [2] is “only binds weakly”. The “affinity for BH3 binding groove of Bcl-2, Bcl-XL, and Bcl-w” value in data set [3] is “high affinity”.
As to `CC(C)C[C@@H](C=O)NC(=O)[C@H](CCCN=C(N)N[N+](=O)[O-])NC(=O)C(CCCCCCCCN1C(=O)c2ccccc2C1=O)C1CCCC1` (stereo partly drawn) [CEP-1612], in data set [4] (A549, MTT, 72 h), the “inhibition of cell viability” value is on record as “about 28%”. In addition, in data set [4] (A549, TUNEL, 48 h), the induction of apoptosis result is recorded as “about 8%”. The PARP cleavage result in data set [4] (A549, immunoblot, about 24 hours) was “but not either drug alone”.

Values taken from patent publication US20130295185A1, “COMPOUNDS AND METHODS FOR INDUCING APOPTOSIS IN CANCER CELLS USING A BH3 ALPHA-HELICAL MIMETIC” (H. Lee Moffitt Cancer Center and Research Institute, Inc., priority 2011, published 2013).
